Assays:
Androgen receptor = target: T1, Androgen receptor (Homo sapiens, UniProt P10275)
T1 sequence (P10275 whole entry): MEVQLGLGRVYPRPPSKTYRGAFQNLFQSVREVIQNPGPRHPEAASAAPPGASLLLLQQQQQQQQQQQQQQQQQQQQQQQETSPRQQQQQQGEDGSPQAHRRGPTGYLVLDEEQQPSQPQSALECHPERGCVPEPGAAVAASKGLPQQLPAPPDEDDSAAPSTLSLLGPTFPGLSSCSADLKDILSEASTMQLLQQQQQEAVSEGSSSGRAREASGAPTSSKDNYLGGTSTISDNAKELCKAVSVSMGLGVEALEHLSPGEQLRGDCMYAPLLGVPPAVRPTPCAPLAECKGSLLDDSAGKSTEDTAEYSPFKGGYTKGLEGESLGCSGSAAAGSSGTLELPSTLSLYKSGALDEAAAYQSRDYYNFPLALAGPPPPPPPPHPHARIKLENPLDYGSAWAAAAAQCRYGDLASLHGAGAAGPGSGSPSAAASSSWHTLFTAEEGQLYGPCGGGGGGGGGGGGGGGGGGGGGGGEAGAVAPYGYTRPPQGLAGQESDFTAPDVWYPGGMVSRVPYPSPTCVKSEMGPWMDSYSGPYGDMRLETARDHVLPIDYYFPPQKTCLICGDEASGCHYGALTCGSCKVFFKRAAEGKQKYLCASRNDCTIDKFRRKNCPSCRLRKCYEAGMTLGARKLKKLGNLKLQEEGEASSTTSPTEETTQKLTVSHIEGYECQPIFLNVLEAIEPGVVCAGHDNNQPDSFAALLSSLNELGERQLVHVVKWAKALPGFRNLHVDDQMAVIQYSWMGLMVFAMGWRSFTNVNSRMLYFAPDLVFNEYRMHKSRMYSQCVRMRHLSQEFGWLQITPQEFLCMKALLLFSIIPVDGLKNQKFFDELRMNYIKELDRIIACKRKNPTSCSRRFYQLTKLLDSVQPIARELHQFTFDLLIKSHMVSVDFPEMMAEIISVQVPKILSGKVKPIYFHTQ

[1] = target: T2, Muscarinic acetylcholine receptor M1 (Homo sapiens, UniProt P11229); type: functional, cell-based
T2 sequence (P11229 whole entry): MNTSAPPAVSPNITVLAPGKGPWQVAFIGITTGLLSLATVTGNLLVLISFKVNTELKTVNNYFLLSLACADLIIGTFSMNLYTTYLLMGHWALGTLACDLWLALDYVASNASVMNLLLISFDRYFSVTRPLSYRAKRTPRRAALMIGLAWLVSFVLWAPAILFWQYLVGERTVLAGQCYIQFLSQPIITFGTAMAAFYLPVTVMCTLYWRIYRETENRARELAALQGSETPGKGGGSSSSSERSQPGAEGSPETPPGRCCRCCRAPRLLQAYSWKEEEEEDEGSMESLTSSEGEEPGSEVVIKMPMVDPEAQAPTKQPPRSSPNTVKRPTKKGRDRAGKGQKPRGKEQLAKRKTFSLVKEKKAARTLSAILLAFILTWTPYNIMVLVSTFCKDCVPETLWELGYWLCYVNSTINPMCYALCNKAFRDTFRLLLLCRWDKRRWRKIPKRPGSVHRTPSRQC

[2] = target: Kappa-type opioid receptor (Homo sapiens, UniProt P41145)
[3] = target: Glutamate receptor ionotropic, NMDA 1 (Rattus norvegicus, UniProt P35439)
D(3) dopamine receptor = D(3) dopamine receptor (Homo sapiens, UniProt P35462)
[4] = target: T3, Alpha-2B adrenergic receptor (Homo sapiens, UniProt P18089)
T3 sequence (P18089 whole entry): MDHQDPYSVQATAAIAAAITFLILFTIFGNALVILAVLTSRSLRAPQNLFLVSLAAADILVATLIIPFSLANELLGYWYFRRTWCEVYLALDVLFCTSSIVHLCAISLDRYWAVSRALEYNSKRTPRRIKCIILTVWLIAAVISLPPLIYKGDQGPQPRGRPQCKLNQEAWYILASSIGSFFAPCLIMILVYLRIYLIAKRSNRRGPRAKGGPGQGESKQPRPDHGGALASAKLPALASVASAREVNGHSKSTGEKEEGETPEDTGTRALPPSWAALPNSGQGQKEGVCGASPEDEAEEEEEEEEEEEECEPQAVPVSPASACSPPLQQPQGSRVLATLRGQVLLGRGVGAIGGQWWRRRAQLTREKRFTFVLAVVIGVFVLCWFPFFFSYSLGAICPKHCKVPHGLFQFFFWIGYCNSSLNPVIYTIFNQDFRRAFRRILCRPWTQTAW

[5] = target: T4, Muscarinic acetylcholine receptor M2 (Homo sapiens, UniProt P08172); type: functional, cell-based
T4 sequence (P08172 whole entry): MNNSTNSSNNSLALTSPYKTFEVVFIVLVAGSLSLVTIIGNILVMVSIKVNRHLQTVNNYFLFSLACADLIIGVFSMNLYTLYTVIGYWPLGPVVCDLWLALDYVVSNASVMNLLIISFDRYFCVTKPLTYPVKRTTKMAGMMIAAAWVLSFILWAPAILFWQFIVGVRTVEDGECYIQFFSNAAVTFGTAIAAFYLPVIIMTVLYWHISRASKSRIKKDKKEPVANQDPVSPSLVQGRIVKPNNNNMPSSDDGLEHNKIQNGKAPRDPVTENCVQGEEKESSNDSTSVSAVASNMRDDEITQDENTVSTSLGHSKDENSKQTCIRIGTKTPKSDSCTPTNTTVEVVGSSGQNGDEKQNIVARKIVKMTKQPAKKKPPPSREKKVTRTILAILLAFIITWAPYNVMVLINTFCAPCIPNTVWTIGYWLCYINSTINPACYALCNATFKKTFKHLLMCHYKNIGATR

[6] = target: Sodium-dependent noradrenaline transporter (Homo sapiens, UniProt P23975)
[7] = target: T5, 5-hydroxytryptamine receptor 1A (Homo sapiens, UniProt P08908); type: functional, cell-based
T5 sequence (P08908 whole entry): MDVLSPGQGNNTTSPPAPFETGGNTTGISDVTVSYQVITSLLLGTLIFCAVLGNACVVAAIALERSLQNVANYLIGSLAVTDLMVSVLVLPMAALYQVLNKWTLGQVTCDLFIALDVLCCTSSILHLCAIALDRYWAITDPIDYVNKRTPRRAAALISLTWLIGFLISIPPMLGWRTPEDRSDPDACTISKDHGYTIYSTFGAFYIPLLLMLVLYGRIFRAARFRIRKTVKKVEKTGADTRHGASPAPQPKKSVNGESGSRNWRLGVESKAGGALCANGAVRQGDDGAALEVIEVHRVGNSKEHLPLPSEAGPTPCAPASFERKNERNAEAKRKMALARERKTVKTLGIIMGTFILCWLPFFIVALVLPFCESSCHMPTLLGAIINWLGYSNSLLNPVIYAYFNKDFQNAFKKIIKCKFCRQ
Note: assay procedure not described here.

D(3) dopamine receptor, sequence (P35462 whole entry): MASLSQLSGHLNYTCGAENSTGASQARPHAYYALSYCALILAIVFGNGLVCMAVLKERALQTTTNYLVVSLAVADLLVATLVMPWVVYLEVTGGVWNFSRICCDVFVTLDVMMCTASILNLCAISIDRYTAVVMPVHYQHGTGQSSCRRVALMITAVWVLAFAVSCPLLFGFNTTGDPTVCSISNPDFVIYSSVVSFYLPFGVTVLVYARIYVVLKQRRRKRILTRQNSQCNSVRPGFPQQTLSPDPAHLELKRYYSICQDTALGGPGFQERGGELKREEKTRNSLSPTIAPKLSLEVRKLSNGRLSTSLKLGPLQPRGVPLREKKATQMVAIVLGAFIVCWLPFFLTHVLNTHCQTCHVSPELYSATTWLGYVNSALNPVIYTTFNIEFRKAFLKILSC
Kappa-type opioid receptor, sequence (P41145 whole entry): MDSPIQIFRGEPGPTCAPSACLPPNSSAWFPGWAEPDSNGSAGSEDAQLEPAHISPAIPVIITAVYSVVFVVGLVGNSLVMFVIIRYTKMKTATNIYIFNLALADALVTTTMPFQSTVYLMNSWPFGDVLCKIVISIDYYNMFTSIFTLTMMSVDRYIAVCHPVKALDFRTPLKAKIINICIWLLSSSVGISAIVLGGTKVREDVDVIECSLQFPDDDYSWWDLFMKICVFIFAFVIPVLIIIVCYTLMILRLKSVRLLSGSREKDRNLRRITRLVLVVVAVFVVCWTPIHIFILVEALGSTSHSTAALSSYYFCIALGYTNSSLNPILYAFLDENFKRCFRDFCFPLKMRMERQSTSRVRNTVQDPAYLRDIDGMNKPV
Sodium-dependent noradrenaline transporter, sequence (P23975 whole entry): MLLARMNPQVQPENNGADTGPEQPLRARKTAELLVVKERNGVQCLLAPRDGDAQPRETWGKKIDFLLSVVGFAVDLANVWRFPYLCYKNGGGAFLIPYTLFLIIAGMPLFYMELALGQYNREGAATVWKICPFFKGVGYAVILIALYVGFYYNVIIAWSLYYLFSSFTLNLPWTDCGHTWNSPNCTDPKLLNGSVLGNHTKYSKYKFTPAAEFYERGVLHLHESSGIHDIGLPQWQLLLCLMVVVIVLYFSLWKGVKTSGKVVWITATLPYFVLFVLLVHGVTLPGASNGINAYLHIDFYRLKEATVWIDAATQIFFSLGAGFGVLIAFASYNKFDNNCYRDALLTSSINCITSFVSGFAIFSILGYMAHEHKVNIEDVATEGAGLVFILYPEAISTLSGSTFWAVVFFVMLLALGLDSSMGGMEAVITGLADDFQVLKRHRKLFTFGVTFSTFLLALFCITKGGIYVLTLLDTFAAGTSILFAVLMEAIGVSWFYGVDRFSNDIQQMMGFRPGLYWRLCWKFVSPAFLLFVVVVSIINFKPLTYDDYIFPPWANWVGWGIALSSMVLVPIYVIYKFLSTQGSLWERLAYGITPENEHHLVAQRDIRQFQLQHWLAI

Row | Structure (SMILES) | AC50 (Androgen receptor) [µM] | AC50 [1] [µM] | other results
1 | CCCC[N+]1(C)[C@@H]2C[C@@H](OC(=O)[C@H](CO)c3ccccc3)C[C@H]1[C@@H]1O[C@@H]12 (stereo partly drawn) [BUTYLSCOPOLAMINE] | > 30 |  | 
2 | C1N2CN3CN1CN(C2)C3 [METHENAMINE] | > 30 | > 30 | 
3 | CN1CCC2=C(C1)c1ccccc1Cc1ccccc12 [SETIPTILINE] | > 30 | 8.28 | 
4 | CC(C)Cc1ccc(C(C)C(=O)NO)cc1 (stereo not drawn) [IBUPROXAM] | > 30 | 20.1 | 
5 | CCOC(=O)CC(SP(=S)(OC)OC)C(=O)OCC (stereo not drawn) [MALATHION] | > 30 | 27.1 | 
6 | NS(=O)(=O)c1cc2c(cc1Cl)NC(C1CC3C=CC1C3)NS2(=O)=O (stereo not drawn) [CYCLOTHIAZIDE] | > 30 | 17.6 | 
7 | COc1ccc(CCC(C)NCC(O)c2ccc(O)c([S+](C)[O-])c2)cc1 (stereo not drawn) [SULFINALOL] | > 30 | > 30 | 
8 | Nc1nc(-n2cc(C(=O)O)c(=O)c3cc(F)c(N4CC(O)C4)c(Cl)c32)c(F)cc1F [DELAFLOXACIN] | > 30 | > 30 | 
9 | O=C(c1ccc(F)c(F)c1Nc1ccc(I)cc1F)N1CC(O)([C@@H]2CCCCN2)C1 [COBIMETINIB] | > 30 |  | 
10 | CC(C(=O)O)c1ccc2c(c1)Cc1cccnc1O2 (stereo not drawn) [PRANOPROFEN] | > 30 | > 30 | 
11 | O=C(O)CCCN1CCC(O[C@@H](c2ccc(Cl)cc2)c2ccccn2)CC1 [BEPOTASTINE] | > 30 | > 30 | 
12 | O=C(O)CCn1c2c(c3ccccc31)C[C@H](NS(=O)(=O)c1ccc(F)cc1)CC2 [RAMATROBAN] |  | > 30 | AC50 [2]: > 10 µM; AC50 [3]: > 10 µM; AC50 (D(3) dopamine receptor): > 30 µM; AC50 [4]: > 10 µM; AC50 [5]: > 10 µM; AC50 [6]: > 30 µM; AC50 [7]: > 10 µM
13 | O=C(NC1CCN(CCCCC2(C(=O)NCC(F)(F)F)c3ccccc3-c3ccccc32)CC1)c1ccccc1-c1ccc(C(F)(F)F)cc1 [LOMITAPIDE] | > 30 | 3.86 | 
14 | CCOc1ccc(/C=C2\NCCc3cc(OCC)c(OCC)cc32)cc1OCC [DROTAVERINE] | > 30 | 12.3 | 
15 | C[C@@H]1C[C@H]2[C@@H]3C[C@H](F)C4=CC(=O)C(Cl)=C[C@]4(C)[C@@]3(F)[C@@H](O)C[C@]2(C)[C@@]1(O)C(=O)CO [HALOMETASONE] | 10.3 | 13.1 | 
16 | O=C(Nc1ccccc1)OCC(CN1CCCCC1)OC(=O)Nc1ccccc1 (stereo not drawn) [DIPERODON] |  | > 30 | AC50 [2]: 1.42 µM; AC50 [3]: > 10 µM; AC50 (D(3) dopamine receptor): 1.3 µM; AC50 [4]: > 10 µM; AC50 [5]: > 30 µM; AC50 [6]: 1.1 µM; AC50 [7]: > 10 µM
17 | CN1C(=O)N(C)C2C1N(C)C(=O)N2C (stereo not drawn) [MEBICAR] | > 30 |  | AC50 [2]: > 30 µM; AC50 [3]: > 30 µM; AC50 (D(3) dopamine receptor): > 30 µM; AC50 [4]: > 30 µM; AC50 [5]: > 30 µM; AC50 [7]: > 30 µM

Row | Structure (SMILES) | AC50 (Androgen receptor) [µM] | AC50 [1] [µM] | other results
18 | CN1CCN(C(c2ccccc2)c2ccccc2)CC1 [CYCLIZINE] | > 30 |  | 
19 | C[C@@H]1C[C@H]2[C@@H]3C[C@H](F)C4=CC(=O)C=C[C@]4(C)[C@@]3(F)[C@@H](O)C[C@]2(C)[C@@]1(O)C(=O)COC(=O)C(C)(C)C [FLUMETHASONE PIVALATE] | 1.4 | > 30 | 
20 | N/N=c1/cc2c(n[nH]1)CCN(C(=O)c1ccccc1)C2 [ENDRALAZINE] | > 30 |  | AC50 [2]: > 30 µM; AC50 [3]: > 30 µM; AC50 (D(3) dopamine receptor): > 30 µM; AC50 [4]: > 30 µM; AC50 [7]: > 30 µM
21 | O=C(O)c1cccc(-c2noc(-c3ccccc3F)n2)c1 |  | > 30 | AC50 [5]: > 10 µM; AC50 [6]: > 30 µM
22 | O=[N+]([O-])c1cncn1CCN1CCOCC1 [NIMORAZOLE] | > 30 | > 30 | 
23 | CCS(=O)(=O)N1CC(CC#N)(n2cc(-c3ncnc4[nH]ccc34)cn2)C1 [BARICITINIB] | > 30 | > 10 | 
24 | O=C1CN=C(c2ccccc2)c2c(sc3c2CCCC3)N1 [BENTAZEPAM] | 1.24 | > 30 | 
25 | NC(=O)c1cccc2cn(-c3ccc([C@@H]4CCCNC4)cc3)nc12 [NIRAPARIB] | > 30 | > 30 | 
26 | CCO[C@@H](Cc1ccc(OCCn2c(C)ccc2-c2ccc(SC)cc2)cc1)C(=O)O [SAROGLITAZAR] | > 30 |  | 
27 | CCN(CC)CCNc1ccc(C)c2sc3ccccc3c(=O)c12 [LUCANTHONE] | > 30 | 4.21 | 
28 | CCOC(=O)C(c1c(O)c2ccccc2oc1=O)c1c(O)c2ccccc2oc1=O [ETHYL BISCOUMACETATE] | > 30 | > 30 | 
29 | Cc1c(O)cccc1C(=O)N[C@@H](CSc1ccccc1)[C@H](O)CN1C[C@H]2CCCC[C@H]2C[C@H]1C(=O)NC(C)(C)C | > 30 |  | 
30 | COc1cc2c(cc1OC)[C@H]1C[C@@H](OC(=O)[C@@H](N)C(C)C)[C@H](CC(C)C)CN1CC2 [VALBENAZINE] | > 30 | > 10 | 
31 | C[C@@H]1O[C@@H](OC[C@H]2O[C@@H](Oc3c(-c4ccc(OCCO)c(OCCO)c4)oc4cc(OCCO)cc(O)c4c3=O)[C@H](O)[C@@H](O)[C@@H]2O)[C@H](O)[C@H](O)[C@H]1O [TROXERUTIN] | > 30 | > 30 | 
32 | CC[C@@H]1/C=C(\C)C[C@H](C)C[C@H](OC)[C@H]2O[C@@](O)(C(=O)C(=O)N3CCCC[C@H]3C(=O)O[C@H](/C(C)=C/[C@@H]3CC[C@H](Cl)[C@H](OC)C3)[C@H](C)[C@@H](O)CC1=O)[C@H](C)C[C@@H]2OC [PIMECROLIMUS] |  | > 30 | 
33 | Cc1nc(-c2ccc(OCC(C)C)c(C#N)c2)sc1C(=O)O [FEBUXOSTAT] | > 30 | 16.1 | 
34 | COc1cc(NCc2ccc3nc(N)nc(N)c3c2C)cc(OC)c1OC [TRIMETREXATE] |  | 12.3 | 
